Measured values as given in patent US6602827B1, “Herbicidal 5-chlorodifluoromethyl-1,3,4-thiadiazol-2-yl-oxyacetanilides” (Bayer Aktiengesellschaft, priority 1999, dated 2003).

Columns and labels:
[1] = test system: Lolium; assay: Pre-emergence test/greenhouse; format: in vivo; conditions: 125 g of ai./ha, rated after three weeks vs untreated control, 0% = no effect, 100% = total destruction
Method: (§1) Pre-emergence Test Solvent: 5 parts by weight of acetone Emulsifier: 1 part by weight of alkylaryl polyglycol ether To produce a suitable preparation of active compound, 1 part by weight of active compound is mixed with the stated amount of solvent, the stated amount of emulsifier is added and the concentrate is diluted with water to the desired concentration. Seeds of the test plants are sown in normal soil. After 24 hours, the soil is sprayed with the preparation of active compound such that the particular amount of active compound desired is applied per unit area. The active compound concentration in the spray liquor is chosen so that the particular amount of active compound desired is applied in 1000 liters of water per hectare. After three weeks, the degree of damage to the plants is rated in % damage in comparison to the development of the untreated control. The figures denote: 0%=no effect (like untreated control) 100%=total destruction

[2] = test system: Matricaria; assay: Pre-emergence test/greenhouse; format: in vivo; conditions: 125 g of ai./ha, rated after three weeks vs untreated control, 0% = no effect, 100% = total destruction
Method: as §1

[3] = test system: Setaria; assay: Pre-emergence test/greenhouse; format: in vivo; conditions: 125 g of ai./ha, rated after three weeks vs untreated control, 0% = no effect, 100% = total destruction
Method: as §1

[4] = test system: Eriochloa; assay: Pre-emergence test/greenhouse; format: in vivo; conditions: 125 g of ai./ha, rated after three weeks vs untreated control, 0% = no effect, 100% = total destruction
Method: as §1

[5] = test system: Galium; assay: Pre-emergence test/greenhouse; format: in vivo; conditions: 125 g of ai./ha, rated after three weeks vs untreated control, 0% = no effect, 100% = total destruction
Method: as §1

[6] = test system: Soya; assay: Pre-emergence test/greenhouse; format: in vivo; conditions: 125 g of ai./ha, rated after three weeks vs untreated control, 0% = no effect, 100% = total destruction
Method: as §1

[7] = test system: Wheat; assay: Pre-emergence test/greenhouse; format: in vivo; conditions: 125 g of ai./ha, rated after three weeks vs untreated control, 0% = no effect, 100% = total destruction
Method: as §1

[8] = test system: crop plants, such as maize; assay: Post-emergence test, crop tolerance; format: in vivo; conditions: in words
Method: (§2) Solvent: 5 parts by weight of acetone
(§3) Emulsifier: 1 part by weight of alkylaryl polyglycol ether
(§4) To produce a suitable preparation of active compound, 1 part by weight of active compound is mixed with the stated amount of solvent, the stated amount of emulsifier is added and the concentrate is diluted with water to the desired concentration.
(§5) Test plants which have a height of 5 to 15 cm are sprayed with the preparation of active compound such that the particular amounts of active compound desired are applied per unit area. The concentration of the spray liquor is chosen so that the particular amounts of active compound desired are applied in 1000 1 of water/ha.
(§6) After three weeks, the degree of damage to the plants is rated in % damage in comparison to the development of the untreated control.
(§7) 0%=no effect (like untreated control))

[9] = test system: Maize; assay: Post-emergence test/greenhouse; format: in vivo; conditions: 1000 g of ai./ha, rated after three weeks vs untreated control, 0% = no effect, 100% = total destruction
Method: as §2, §3, §4, §5, §6, §7

[10] = test system: Setaria; assay: Post-emergence test/greenhouse; format: in vivo; conditions: 1000 g of ai./ha, rated after three weeks vs untreated control, 0% = no effect, 100% = total destruction
Method: as §2, §3, §4, §5, §6, §7

[11] = test system: Galium; assay: Post-emergence test/greenhouse; format: in vivo; conditions: 1000 g of ai./ha, rated after three weeks vs untreated control, 0% = no effect, 100% = total destruction
Method: as §2, §3, §4, §5, §6, §7

[12] = test system: Xanthium; assay: Post-emergence test/greenhouse; format: in vivo; conditions: 1000 g of ai./ha, rated after three weeks vs untreated control, 0% = no effect, 100% = total destruction
Method: as §2, §3, §4, §5, §6, §7

[13] = test system: crop plants, such as soya and wheat; assay: Pre-emergence test, crop tolerance; format: in vivo; conditions: in words
Method: as §1

[14] = test system: weeds; assay: Pre-emergence test, overall activity against weeds; format: in vivo; conditions: in words
Method: as §1

[15] = test system: weeds; assay: Post-emergence test, overall activity against weeds; format: in vivo; conditions: in words
Method: as §2, §3, §4, §5, §6, §7

CC(C)N(C(=O)COc1nnc(C(F)(F)Cl)s1)c1ccc(F)cc1 [Example 1, N-i-propyl-N-(4-fluoro-phenyl)-2-(5-chlorodifluoromethyl-1,3,4-thiadiazol-2-yl-oxy)-acetamide]
degree of damage, Lolium [1]: 90%
degree of damage, Matricaria [2]: 100%
degree of damage, Setaria [3]: 100%
degree of damage, Eriochloa [4]: 100%
degree of damage, Galium [5]: 90%
degree of damage, Soya [6]: 0%
degree of damage, Wheat [7]: 0%
melting point: 98 °C
tolerance by crop plants [8]: tolerated well
degree of damage, Maize [9]: 30%
degree of damage, Setaria [10]: 95%
degree of damage, Galium [11]: 95%
degree of damage, Xanthium [12]: 80%
tolerance by crop plants [13]: tolerated well
activity against weeds [14]: very strong activity
activity against weeds [15]: strong activity
